Laboratory results from PMC9769502 (Microbiology Spectrum, 2022).
No end group written: not given here.

Tested on: THP-1 macrophages
Test: Cytotoxicity against THP-1 macrophages (CellTiter-Blue)
Format: cell-based, human
Settings: not given
Protocol: THP-1 (human acute monocytic leukemia-derived) host macrophages were cultured in RPMI 1640 supplemented with 10% FCS and a penicillin-streptomycin antibiotic solution (10,000 U/mL penicillin, 10,000 μg/mL streptomycin) at 37°C with 5% CO2. THP-1 cells were incubated with 0.25 μM phorbol 12-myristate […] (PMA) for 48 h to differentiate into mature macrophages. Differentiated macrophages were seeded into 96-well plates at 5 × 10^6 cells/mL and incubated for 48 h in the presence of 20 μM antimicrobial peptides along with the appropriate solvent controls. Cell viability assays were conducted using CellTiter-Blue (Promega), based on resazurin reduction. After the 48-h incubation period, CellTiter-Blue reagent was added to cells for 4 h at 37°C, and fluorescence was measured (555-nm excitation/580-nm emission) using a FlexStation 3 benchtop multimode reader (Molecular Devices). Each assay was performed in triplicate. The CC50 values were calculated by nonlinear regression analysis using GraphPad Prism 9.0 for Windows.

Sequence | THP-1 macrophage CC50
AGRQALTLYLKEELRKFWKKARIAW [Syn-xiamencin-21] | < 20 µM
AWKETIRQYLKNKIKKKGRKAVIAW [Syn-safencin-19] | < 20 µM
AGKETIFQRLKKKIQEKGKRATIAW [Syn-larvacin-3] | below 20 μM
AWKETIRQYLKNEIKKKWRKAVIAW [Syn-safencin-89] | < 20 µM
AGANRLTKELLEYLRKFWKIARKAW [Syn-xiamencin-24] | < 20 µM
AGKKTIRQYLKNKIKKKGRKWVIAW [Syn-safencin-60] | < 20 µM
AWKETIRQYLKNKIKKKWRKAVIAW [Syn-safencin-91] | < 20 µM
AGTEKIFNRLKKWINEGKKIAKRAW [Syn-larvacin-32] | < 20 µM
AGTEKIFQRLKKWIQEGKKIAKRAW [Syn-larvacin-31] | < 20 µM
AGRQALTLYLKEELRKFGKKWRIAW [Syn-xiamencin-37] | < 20 µM
AGKEKIRQYLKNEIKKKGRKAWIAW [Syn-safencin-69] | < 20 µM
AWKETIFQRLKKKIQEKGKRATIAW [Syn-larvacin 35] | > 20 µM
AGKETIRQYLKNEIKKKGRKAWIAW [Syn-safencin-65] | < 20 µM
AWTEKIFNRLKKTINEGKKIAKRAW [Syn-larvacin-40] | < 20 µM
WGKETIRQKLKNEIKKKGRKAVIAW [Syn-safencin-15] | below 20 μM
AGAQRLWKELLEYLRKFGKIARKAW [Syn-xiamencin-47] | < 20 µM
AWTEKIFQRLKKTIQEGKKIAKRAW [Syn-larvacin-39] | < 20 µM
AGRQWLTLYLKEELRKRGKKAFIAW [Syn-xiamencin-49] | < 20 µM
AGKKTIRQYLKNEIKKKGRKAVIWW [Syn-safencin 82] | > 20 µM
AGKEKIRKKLKNEIKKKGRKAWIAW [Syn-safencin 72] | > 20 µM
AGKEKIRQYLKNEIKKKGRKAVWAW [Syn-safencin 77] | > 20 µM
AGAQRLTLYLKEELRKRWKKAFIAW [Syn-xiamencin-18] | < 20 µM
AWKETIRKYLKNEIKKKGRKAVIAW [Syn-safencin-22] | < 20 µM

Sequence | THP-1 macrophage CC50
AGKETIRQKLKNEIKKKGRKAVIAW [Syn-safencin 7] | > 20 µM
AGWQRLTLYLKEELRKRGKKAFIAW [Syn-xiamencin-50] | < 20 µM
AGKETIRQFLKKKIQEWKKRATIAW [Syn-larvacin-44] | < 20 µM
AWKKTIRQYLKNEIKKKWRKAVIAW [Syn-safencin-90] | < 20 µM
AGTEKIFQRLKKTIQEWKKIAKRAW [Syn-larvacin-47] | < 20 µM
AGRQALWLYLKEELRKRGKIAFKAW [Syn-xiamencin-46] | < 20 µM
AWANRLTKELLEYLRKFGKIARKAW [Syn-xiamencin-32] | < 20 µM
AGKEKIRQFLKKKIQEGKKRATIAW [Syn-larvacin-76] | < 20 µM
AGKEKIRQFLKKKIQEKGKRATIAW [Syn-larvacin-73] | < 20 µM
AGSERIAKELKKYIKKWKKVIRAAW [Syn-enterocin-48] | < 20 µM
AGKKTIRQYLKNEIKKKGRKAVIAW [Syn-safencin 2] | > 20 µM
AGKKTIRQYLKNKIKKKWRKAVIAW [Syn-safencin-52] | < 20 µM
AGANRLTKELLEYLRKFGKIWRKAW [Syn-xiamencin-40] | < 20 µM
AGKKTIRQYLKNKIKKKGRKAVWAW [Syn-safencin-76] | < 20 µM
AGKETIRKYLKNEIKKKGRKAVIAW [Syn-safencin 6] | > 20 µM
AGKEKIRQYLKNEIKKKGRKWVIAW [Syn-safencin-61] | < 20 µM
AGKETIRQFLKKKIQEGKKRATIAW [Syn-larvacin-4] | below 20 μM
AGKKTIRQYLKNKIKKKGRKAWIAW [Syn-safencin-68] | < 20 µM
AGKEKIRKKLKNEIKKKGRKWVIAW [Syn-safencin-64] | < 20 µM
AGKETIRQFLKKKIQEKKKRATIAW [Syn-larvacin-81] | < 20 µM
AGKEKIRQFLKKTIQEKGKRAKIAW [Syn-larvacin-77] | < 20 µM
AGKEKIRQYWKNEIKKKGRKAVIAW [Syn-safencin-37] | < 20 µM
AGRQALTLELKEYLRKRGKKWFIAW [Syn-xiamencin-35] | < 20 µM

Same assay, conditions: 48 h

Sequence | THP-1 macrophage CC50 [µM]
AWKETIFQRLKKKIQEKGKRATIAW [Syn-larvacin 35] | >20
AGKKTIRQYLKNEIKKKGRKAVIWW [Syn-safencin 82] | >20
AGKEKIRKKLKNEIKKKGRKAWIAW [Syn-safencin 72] | >20
AGKEKIRQYLKNEIKKKGRKAVWAW [Syn-safencin 77] | >20
AGKETIRQKLKNEIKKKGRKAVIAW [Syn-safencin 7] | >20
AGKKTIRQYLKNEIKKKGRKAVIAW [Syn-safencin 2] | >20
AGKETIRKYLKNEIKKKGRKAVIAW [Syn-safencin 6] | >20

Tested on: Leishmania donovani axenic amastigotes
Test: not given
Settings: 48 h
Protocol: We utilized a previously developed high-throughput screening assay using transgenic axenic amastigotes expressing a red fluorescent protein, mCherry. Changes in mCherry fluorescence were normalized to 50 μM miltefosine in order to quantify parasite inhibition ([52]). In total, 5 scaffold 25-mer peptides and 475 synthetic 25-mer peptide variants were screened (Fig. 1). […] The assay was repeated, and the average percent parasite killing was determined.
Axenic amastigotes were differentiated as described previously ([69]).
Axenic amastigotes were differentiated as described previously ([69]); briefly, transgenic L. donovani promastigotes expressing mCherry were differentiated by pH and temperature shifts. Amastigotes were seeded into 96-well plates at 5 × 10^6 cells/mL and incubated for 48 h in the presence of decreasing drug concentrations, starting at 20 μM, along with the appropriate solvent controls. Fluorescence was monitored (587-nm excitation/610-nm emission) over 48 h using a FlexStation 3 benchtop multimode reader (Molecular Devices). […] Thus, changes in mCherry fluorescence were normalized to the 50 μM miltefosine control in order to quantify parasite inhibition. Each assay was performed in triplicate. The IC50 values were calculated by nonlinear regression analysis using GraphPad Prism 9.0 for Windows.

Sequence | IC50 [µM]
AWKETIFQRLKKKIQEKGKRATIAW [Syn-larvacin 35] | 0.63 ± 0.14
AGKKTIRQYLKNEIKKKGRKAVIWW [Syn-safencin 82] | 0.375 ± 0.1
AGKEKIRKKLKNEIKKKGRKAWIAW [Syn-safencin 72] | 12.07 ± 0.09
AGKEKIRQYLKNEIKKKGRKAVWAW [Syn-safencin 77] | 0.39 ± 0.13
AGKETIRQKLKNEIKKKGRKAVIAW [Syn-safencin 7] | 0.77 ± 0.08
AGKKTIRQYLKNEIKKKGRKAVIAW [Syn-safencin 2] | 2.42 ± 0.09
AGKETIRKYLKNEIKKKGRKAVIAW [Syn-safencin 6] | 0.48 ± 0.07

Same assay, conditions: read-out: Axenic amastigotes Mean IC50 ± SD

Sequence | IC50 [µM]
AGTEKIFQRLKKWIQEGKKIAKRAW [Syn-larvacin-31] | 3.8
AGRQALTLYLKEELRKFGKKWRIAW [Syn-xiamencin-37] | 3.71
AGAQRLWKELLEYLRKFGKIARKAW [Syn-xiamencin-47] | 2.68
AGRQWLTLYLKEELRKRGKKAFIAW [Syn-xiamencin-49] | 9.22
AGWQRLTLYLKEELRKRGKKAFIAW [Syn-xiamencin-50] | 3.74
AGRQALWLYLKEELRKRGKIAFKAW [Syn-xiamencin-46] | 11.8
AGANRLTKELLEYLRKFGKIWRKAW [Syn-xiamencin-40] | 1.31

Same assay, conditions: read-out: Axenic amastigotes Mean IC50 ± SD; L. donovani mCherry axenic amastigotes, 48 h, fluorescence normalized to 50 μM miltefosine; highest concentration 20 μM; mean of three replicates

Sequence | IC50 [µM]
AGRQALTLYLKEELRKFWKKARIAW [Syn-xiamencin-21] | 0.59
AWKETIRQYLKNKIKKKGRKAVIAW [Syn-safencin-19] | 0.38
AGKETIFQRLKKKIQEKGKRATIAW [Syn-larvacin-3] | 0.36
AWKETIRQYLKNEIKKKWRKAVIAW [Syn-safencin-89] | 1.05
AGANRLTKELLEYLRKFWKIARKAW [Syn-xiamencin-24] | 1.63
AGKKTIRQYLKNKIKKKGRKWVIAW [Syn-safencin-60] | 1.31
AWKETIRQYLKNKIKKKWRKAVIAW [Syn-safencin-91] | 0.6
AGTEKIFNRLKKWINEGKKIAKRAW [Syn-larvacin-32] | 0.23
AGKEKIRQYLKNEIKKKGRKAWIAW [Syn-safencin-69] | 3.37
AGKETIRQYLKNEIKKKGRKAWIAW [Syn-safencin-65] | 1.01
AWTEKIFNRLKKTINEGKKIAKRAW [Syn-larvacin-40] | 8.35
WGKETIRQKLKNEIKKKGRKAVIAW [Syn-safencin-15] | 1.71
AWTEKIFQRLKKTIQEGKKIAKRAW [Syn-larvacin-39] | 1.43
AGAQRLTLYLKEELRKRWKKAFIAW [Syn-xiamencin-18] | 0.65
AWKETIRKYLKNEIKKKGRKAVIAW [Syn-safencin-22] | 1.18
AGKETIRQFLKKKIQEWKKRATIAW [Syn-larvacin-44] | 0.47

Sequence | IC50 [µM]
AWKKTIRQYLKNEIKKKWRKAVIAW [Syn-safencin-90] | 2.6
AGTEKIFQRLKKTIQEWKKIAKRAW [Syn-larvacin-47] | 1.1
AWANRLTKELLEYLRKFGKIARKAW [Syn-xiamencin-32] | 0.89
AGKEKIRQFLKKKIQEGKKRATIAW [Syn-larvacin-76] | 1.58
AGKEKIRQFLKKKIQEKGKRATIAW [Syn-larvacin-73] | 0.39
AGSERIAKELKKYIKKWKKVIRAAW [Syn-enterocin-48] | 1.21
AGKKTIRQYLKNKIKKKWRKAVIAW [Syn-safencin-52] | 0.58
AGKKTIRQYLKNKIKKKGRKAVWAW [Syn-safencin-76] | 16.3
AGKEKIRQYLKNEIKKKGRKWVIAW [Syn-safencin-61] | 3.56
AGKETIRQFLKKKIQEGKKRATIAW [Syn-larvacin-4] | 1.09
AGKKTIRQYLKNKIKKKGRKAWIAW [Syn-safencin-68] | 0.56
AGKEKIRKKLKNEIKKKGRKWVIAW [Syn-safencin-64] | 0.33
AGKETIRQFLKKKIQEKKKRATIAW [Syn-larvacin-81] | 0.26
AGKEKIRQFLKKTIQEKGKRAKIAW [Syn-larvacin-77] | 10.3
AGKEKIRQYWKNEIKKKGRKAVIAW [Syn-safencin-37] | 5.21
